Measured values taken from ChEMBL document CHEMBL3612062, “Antitumor activity of endoperoxide-iron chelator conjugates-design, synthesis and biological evaluation” (Eur J Med Chem, 2015).

How the values were obtained:
A549 = assay: Cytotoxicity against human A549 cells after 48 hrs by MTT assay; assay type: functional, cell-based; details: A549, 48 h
[1] = Cytotoxicity against human HL7702 cells after 48 hrs by MTT assay; assay type: cell-based; details: L02, 48 h
HL-60 = assay: Cytotoxicity against human HL60 cells after 48 hrs by MTT assay; assay type: functional, cell-based; details: HL-60, 48 h
SMMC-7721 [2] = assay: Cytotoxicity against human SMMC7721 cells after 48 hrs by MTT assay; assay type: functional, cell-based; details: SMMC-7721, 48 h
SW480 = assay: Cytotoxicity against human SW480 cells after 48 hrs by MTT assay; assay type: functional, cell-based; details: SW480, 48 h
SMMC-7721 [3] = assay: Increase of cell survival in human SMMC7721 at 50 uM after 48 hrs by MTT assay in presence of deferoxamine; assay type: functional
[4] = Selectivity ratio of IC50 for human HL7702 cells to IC50 for human SMMC7721 cells; assay type: ADME, cell-based, SMMC-7721; details: HL7702 cells versus SMMC7721 cells, read-out: Ratio IC50
[5] = Metal chelating activity of the compound assessed as formation of iron-compound complex at 100 uM using FeCl3 by UV-vis spectrometry; assay type: physicochemical
[6] = Metal chelating activity of the compound assessed as formation of iron-compound complex at 100 uM using FeSO4 by UV-vis spectrometry; assay type: physicochemical
SMMC-7721 [7] = assay: Induction of apoptosis in human SMMC7721 cells after 24 hrs using annexin-V FITC and propidium iodide staining by flow cytometry analysis; assay type: functional, cell-based
SMMC-7721 [8] = assay: Induction of apoptosis in human SMMC7721 cells at 10 uM after 24 hrs using annexin-V FITC and propidium iodide staining by flow cytometry analysis; assay type: functional
SMMC-7721 [9] = assay: Induction of apoptosis in human SMMC7721 cells at 20 uM after 24 hrs using annexin-V FITC and propidium iodide staining by flow cytometry analysis; assay type: functional
[10] = Binding affinity to ferric oxide assessed as dissociation degree at 2:1 ligand to metal ratio by UV-visible spectrophotometry
[11] = Stability of the compound-ferric oxide complex; assay type: physicochemical
SMMC-7721 [12] = assay: Cytotoxicity against human SMMC7721 cells assessed activity loss of cells at 5 uM after 48 hrs by MTT assay; assay type: functional
[13] = Binding affinity to ferric oxide assessed as dissociation degree at 1:1 ligand to metal ratio by UV-visible spectrophotometry

Structure (SMILES) | IC50 (A549) [µM] | IC50 [1] [µM] | IC50 (HL-60) [µM] | IC50 (SMMC-7721 [2]) [µM] | IC50 (SW480) [µM] | Activity (SMMC-7721 [3]) [%] | selectivity ratio [4] | Activity [5] | Activity [6] | Activity (SMMC-7721 [7]) | Activity (SMMC-7721 [8]) [%] | Activity (SMMC-7721 [9]) [%] | Activity [10] [%] | Stability [11] | Activity (SMMC-7721 [12]) [%] | Activity [13] [%]
O=C(N[C@H]1CC[C@@]2(CC1)OC[C@]1(OO2)C2CC3CC(C2)CC1C3)c1ccc(O)c(O)c1 (mixture of isomers) | > 50 | > 50 | 34.8 | > 50 | > 50 | 10 | – | – | – | – | – | – | – | – | – | –
Oc1ccc(N[C@H]2CC[C@]3(CC2)OO[C@]2(O3)C3CC4CC(C3)CC2C4)c2cccnc12 (mixture of isomers) | 15.9 | 25.7 | 8.1 | 7.3 | > 50 | 15 | 3.52 | – | – | – | – | – | – | – | – | –
O=C(NO)[C@H]1CC[C@]2(CC1)OO[C@]1(O2)C2CC3CC(C2)CC1C3 (mixture of isomers) | > 50 | > 50 | > 50 | > 50 | > 50 | – | – | – | – | – | – | – | – | – | – | –
Oc1ccc(N[C@H]2CC[C@]3(CC2)OC[C@]2(O3)C3CC4CC(C3)CC2C4)c2cccnc12 (mixture of isomers) | 17.2 | 30.1 | 9.2 | 12.6 | > 50 | – | 2.39 | – | – | – | – | – | – | – | – | –
O=C(NC1CCC2(CC1)OCC1(CO2)C2CC3CC(C2)CC1C3)c1ccc(O)c(O)c1 (mixture of isomers) | > 50 | > 50 | 30.1 | > 50 | > 50 | – | – | – | – | – | – | – | – | – | – | –
Oc1ccc(NC2CCC3(CC2)OOC2(OO3)C3CC4CC(C3)CC2C4)c2cccnc12 (mixture of isomers) | 11.8 | 27.7 | 6 | 7.5 | > 50 | 15 | 3.71 | Active | Active | Dose-dependent effect | 12.2 | 33.2 | 18 | Stable | – | –
Oc1ccc(N[C@H]2CC[C@@]3(CC2)OC[C@]2(OO3)C3CC4CC(C3)CC2C4)c2cccnc12 (mixture of isomers) | 23.9 | 36 | 6.6 | 11 | > 50 | 15 | 3.28 | – | – | – | – | – | – | – | – | –
Oc1ccc(NC2CCC3(CC2)OCC2(CO3)C3CC4CC(C3)CC2C4)c2cccnc12 (mixture of isomers) | 45.6 | 41.9 | 12.9 | 20.3 | > 50 | – | 2.06 | – | – | – | – | – | – | – | – | –
CC(=O)N(O)CCCCCNC(=O)CCC(=O)N(O)CCCCCNC(=O)CCC(=O)N(O)CCCCCN [DEFEROXAMINE] | – | – | – | – | – | – | – | – | – | – | – | – | – | – | 5 | –
O=C(NO)[C@H]1CC[C@@]2(CC1)OC[C@]1(OO2)C2CC3CC(C2)CC1C3 (mixture of isomers) | > 50 | > 50 | > 50 | > 50 | > 50 | – | – | – | – | – | – | – | – | – | – | –
O=C1CCC2(CC1)OCC1(OO2)C2CC3CC(C2)CC1C3 (centres undefined) | > 100 | > 100 | > 100 | > 100 | > 100 | – | – | – | – | – | – | – | – | – | – | –
C[C@H]1[C@@H](O)O[C@@H]2O[C@@]3(C)CC[C@H]4[C@H](C)CC[C@@H]1[C@@]24OO3 [ARTENIMOL] | 30.1 | 34.9 | 18.7 | 13.8 | > 100 | – | 2.52 | – | – | – | – | – | – | – | – | –
O=C(N[C@H]1CC[C@]2(CC1)OO[C@]1(O2)C2CC3CC(C2)CC1C3)c1ccc(O)c(O)c1 (mixture of isomers) | > 50 | > 50 | 31.2 | > 50 | > 50 | 10 | – | – | – | – | – | – | – | – | – | –
O=C(O)c1ccc(O)c(O)c1 [PROTOCATECHUIC ACID] | > 50 | > 50 | > 50 | > 50 | > 50 | – | – | – | – | – | – | – | – | – | – | –
O=C(O)[C@H]1CC[C@@]2(CC1)OC[C@]1(OO2)C2CC3CC(C2)CC1C3 | > 100 | > 100 | > 100 | > 100 | > 100 | – | – | – | – | – | – | – | – | – | – | –
O=C(NO)C1CCC2(CC1)OOC1(OO2)C2CC3CC(C2)CC1C3 (centres undefined) | > 50 | > 50 | > 50 | > 50 | > 50 | – | – | – | – | – | – | – | – | – | – | –
O=C(N[C@H]1CC[C@]2(CC1)OC[C@]1(O2)C2CC3CC(C2)CC1C3)c1ccc(O)c(O)c1 (mixture of isomers) | > 50 | > 50 | 35.5 | > 50 | > 50 | – | – | – | – | – | – | – | – | – | – | –
O=C(O)C1CCC2(CC1)OOC1(OO2)C2CC3CC(C2)CC1C3 (centres undefined) | > 100 | > 100 | > 100 | > 100 | > 100 | – | – | – | – | – | – | – | – | – | – | –
Nc1ccc(O)c2ncccc12 | > 50 | > 50 | 13.8 | > 50 | > 50 | – | – | – | – | – | – | – | – | – | – | –
O=C1CCC2(CC1)OOC1(OO2)C2CC3CC(C2)CC1C3 | > 100 | > 100 | > 100 | > 100 | > 100 | – | – | – | – | – | – | – | – | – | – | –
O=C(NC1CCC2(CC1)OOC1(OO2)C2CC3CC(C2)CC1C3)c1ccc(O)c(O)c1 (centres undefined) | > 50 | > 50 | 25 | 33.8 | > 50 | 10 | – | Active | Active | – | – | – | – | Stable | – | 36
O=C(O)[C@H]1CC[C@]2(CC1)OO[C@]1(O2)C2CC3CC(C2)CC1C3 | > 100 | > 100 | > 100 | > 100 | > 100 | – | – | – | – | – | – | – | – | – | – | –
O=C1CCC2(CC1)OOC1(O2)C2CC3CC(C2)CC1C3 (centres undefined) | > 100 | > 100 | > 100 | > 100 | > 100 | – | – | – | – | – | – | – | – | – | – | –
